Test results as given in EP0075139A1 (priority 1981, dated 1983).

Tested on: Plasmopara viticola
Experiment: Efficacy against Plasmopara viticola on potted vine leaves (protective spray, greenhouse)
Type: in vivo
Details: 0,025 %ige Spritzbrühe; potted vines "Müller-Thurgau"; infected 10 days after spraying; value given as 'beispielsweise' (for example)
From the text: Wirksamkeit gegen Plasmopara viticola
Blätter von Topfreben der Sorte "Müller-Thurgau" werden mit wäßriger Spritzbrühe, die 80 % Wirkstoff und 20 % Emulgiermittel in der Trockensubstanz enthält, besprüht. Um die Wirkungsdauer der Wirkstoffe beurteilen zu können, werden die Pflanzen nach dem Antrocknen des Spritzbelages 10 Tage im Gewächshaus aufgestellt. Erst dann werden die Blätter mit einer Zoosporenaufschwemmung von Plasmopara viticola (Rebenperonospora) infiziert. Danach werden die Reben zunächst für 16 Stunden in einer wasserdampfgesättigten Kammer bei 24°C und anschließend für 8 Tage in einem Gewächshaus mit Temperaturen zwischen 20 und 30 C aufgestellt. Nach dieser Zeit werden die Pflanzen zur Beschleunigung des Sporangienträgerausbruchs abermals für 16 Stunden in der feuchten Kammer aufgestellt. Dann erfolgt die Beurteilung des Ausmaßes des Pilzausbruches auf den Blattunterseiten.
Das Ergebnis des Versuches zeigt, daß beispielsweise die Verbindungen Nr. 1, 2, 11 und 12 bei Anwendung als 0,025 %ige Spritzbrühe eine bessere fungizide Wirkung (beispielsweise 100 %) zeigen als der bekannte Wirkstoff A (beispielsweise 90 %).

SMILES | fungizide Wirkung
CC(=O)C(=O)N(c1c(C)ccc2ccccc12)C1CCOC1=O (stereo not drawn) [Verbindung Nr. 1, N-(2-Methyl-1-naphthyl)-N-(alpha-butyro--gamma-lactonyl)-brenztraubensäure-amid] | 100%
O=C1c2ccccc2C(=O)N1SC(Cl)(Cl)Cl [Verbindung A, N-Trichlormethylthio-phthalimid] | 90%

Tested on: Phytophthora infestans
Experiment: not given
Type: in vivo
Details: 0,025 %ige Spritzbrühe; potted tomato "Große Fleischtomate"; assessed 5 days after infection; value given as 'beispielsweise' (for example)

SMILES | fungizide Wirkung
CC(=O)C(=O)N(c1c(C)ccc2ccccc12)C1CCOC1=O (stereo not drawn) [Verbindung Nr. 1, N-(2-Methyl-1-naphthyl)-N-(alpha-butyro--gamma-lactonyl)-brenztraubensäure-amid] | 90%
COC(=O)C(C)N(C(=O)C(C)=NOCc1c(Cl)cccc1Cl)c1c(C)cccc1C (stereo not drawn) [Verbindung Nr. 22, N-(2,6-Dimethyl-phenyl)-N-[(1-methoxycarbonyl)-1-ethyl]-2-[O-(2,6-dichlor-benzyl)-oximino]-brenztraubensäure-amid] | 90%
S=C([S-])NCCNC(=S)[S-].[Zn+2] [Verbindung C, Zink-ethylen-1,2-bis-dithiocarbamat] | 70%
O=C1C2CC=CCC2C(=O)N1SC(Cl)(Cl)Cl (stereo not drawn) [Verbindung B, N-Trichlormethylthio-tetrahydrophthalimid] | 70%
